# Test results: ChEMBL document CHEMBL1126362, “Episulfide inhibitors of lipoxygenase” (Bioorg Med Chem Lett, 1992)
# Target: T1, Seed linoleate 13S-lipoxygenase-1 (Glycine max, UniProt P08170)
# T1 sequence (P08170 whole entry): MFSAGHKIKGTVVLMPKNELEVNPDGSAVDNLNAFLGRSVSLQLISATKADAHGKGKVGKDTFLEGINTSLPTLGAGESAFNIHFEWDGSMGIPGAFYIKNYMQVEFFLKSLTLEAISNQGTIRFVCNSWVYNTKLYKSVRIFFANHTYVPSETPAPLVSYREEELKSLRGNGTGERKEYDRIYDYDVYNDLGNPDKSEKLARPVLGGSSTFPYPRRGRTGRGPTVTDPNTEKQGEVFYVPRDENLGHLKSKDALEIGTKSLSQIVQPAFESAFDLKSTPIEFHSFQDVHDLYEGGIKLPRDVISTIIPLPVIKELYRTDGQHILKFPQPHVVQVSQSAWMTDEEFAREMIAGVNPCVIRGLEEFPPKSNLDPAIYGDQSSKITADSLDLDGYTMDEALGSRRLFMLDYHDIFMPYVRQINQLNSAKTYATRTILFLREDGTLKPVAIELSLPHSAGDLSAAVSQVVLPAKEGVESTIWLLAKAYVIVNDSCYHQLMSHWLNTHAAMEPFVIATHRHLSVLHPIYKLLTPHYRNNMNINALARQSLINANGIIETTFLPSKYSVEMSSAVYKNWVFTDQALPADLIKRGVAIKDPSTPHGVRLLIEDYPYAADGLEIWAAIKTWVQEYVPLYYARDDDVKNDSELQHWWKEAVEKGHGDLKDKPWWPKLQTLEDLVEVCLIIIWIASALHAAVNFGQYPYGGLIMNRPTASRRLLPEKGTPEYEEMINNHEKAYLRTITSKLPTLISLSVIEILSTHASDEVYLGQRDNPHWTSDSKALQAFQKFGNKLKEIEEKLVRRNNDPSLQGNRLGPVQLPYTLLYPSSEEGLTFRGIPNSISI
# Test: Inhibitory activity against Soybean type 1 Lipoxygenase (SBLO) was determined
row,Structure (SMILES),Ki [µM]
1,CCCCCCCCC1OC1CCCCCCCC(=O)O (configuration not stated),> 100
2,CCCCC/C=C/CC1OC1CCCCCCCC(=O)O (configuration not stated),> 100
3,CCCCC/C=C/CC1SC1CCCCCCCC(=O)O (configuration not stated),> 100
4,CCCCCC1SC1C/C=C/CCCCCCCC(=O)O (configuration not stated),2
5,CCCCCC1OC1CCCCCCCCCCC(=O)O (configuration not stated),> 100
6,CCCCCC1SC1CCCCCCCCCCC(=O)O (configuration not stated),4
7,CCCCCCCCC1SC1CCCCCCCC(=O)O (configuration not stated),> 100
